{"source": "ChEMBL document CHEMBL5096208", "about": "“Installation of Pargyline, a LSD1 Inhibitor, in the HDAC Inhibitory Template Culminated in the Identification of a Tractable Antiprostate Cancer Agent” (J Med Chem, 2021)", "key": {"PC-3 [1]": {"test_system": "PC-3", "experiment": "Antiproliferative activity against human PC-3 cells assessed as cell growth inhibition incubated for 48 hrs by MTT assay", "type": "functional"}, "HUVEC": {"test_system": "HUVEC", "experiment": "Cytotoxicity against HUVEC cells assessed as reduction in cell viability at upto 10 uM incubated for 48 hrs by MTT assay", "type": "toxicity, cell-based", "details": "human"}, "Histone deacetylase 8": {"target": "T1, Histone deacetylase 8 (Homo sapiens, UniProt Q9BY41)", "T1 sequence (Q9BY41 whole entry)": "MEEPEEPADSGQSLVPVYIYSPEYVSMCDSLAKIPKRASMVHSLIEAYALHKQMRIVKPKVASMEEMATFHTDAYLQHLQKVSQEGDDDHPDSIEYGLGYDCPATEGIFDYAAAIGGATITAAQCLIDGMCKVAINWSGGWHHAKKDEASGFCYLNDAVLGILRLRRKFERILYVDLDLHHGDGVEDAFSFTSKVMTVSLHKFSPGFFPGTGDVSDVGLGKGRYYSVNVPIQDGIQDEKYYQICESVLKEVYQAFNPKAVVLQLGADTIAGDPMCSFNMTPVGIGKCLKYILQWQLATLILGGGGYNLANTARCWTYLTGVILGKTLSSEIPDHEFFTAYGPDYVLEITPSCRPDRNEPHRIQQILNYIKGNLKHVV", "experiment": "Inhibition of human HDAC8 (379 to 382 residues) using RHKAcKAc as flurogenic substrate"}, "Histone deacetylase 9": {"target": "Histone deacetylase 9 (Homo sapiens, UniProt Q9UKV0)", "sequence (Q9UKV0 whole entry)": "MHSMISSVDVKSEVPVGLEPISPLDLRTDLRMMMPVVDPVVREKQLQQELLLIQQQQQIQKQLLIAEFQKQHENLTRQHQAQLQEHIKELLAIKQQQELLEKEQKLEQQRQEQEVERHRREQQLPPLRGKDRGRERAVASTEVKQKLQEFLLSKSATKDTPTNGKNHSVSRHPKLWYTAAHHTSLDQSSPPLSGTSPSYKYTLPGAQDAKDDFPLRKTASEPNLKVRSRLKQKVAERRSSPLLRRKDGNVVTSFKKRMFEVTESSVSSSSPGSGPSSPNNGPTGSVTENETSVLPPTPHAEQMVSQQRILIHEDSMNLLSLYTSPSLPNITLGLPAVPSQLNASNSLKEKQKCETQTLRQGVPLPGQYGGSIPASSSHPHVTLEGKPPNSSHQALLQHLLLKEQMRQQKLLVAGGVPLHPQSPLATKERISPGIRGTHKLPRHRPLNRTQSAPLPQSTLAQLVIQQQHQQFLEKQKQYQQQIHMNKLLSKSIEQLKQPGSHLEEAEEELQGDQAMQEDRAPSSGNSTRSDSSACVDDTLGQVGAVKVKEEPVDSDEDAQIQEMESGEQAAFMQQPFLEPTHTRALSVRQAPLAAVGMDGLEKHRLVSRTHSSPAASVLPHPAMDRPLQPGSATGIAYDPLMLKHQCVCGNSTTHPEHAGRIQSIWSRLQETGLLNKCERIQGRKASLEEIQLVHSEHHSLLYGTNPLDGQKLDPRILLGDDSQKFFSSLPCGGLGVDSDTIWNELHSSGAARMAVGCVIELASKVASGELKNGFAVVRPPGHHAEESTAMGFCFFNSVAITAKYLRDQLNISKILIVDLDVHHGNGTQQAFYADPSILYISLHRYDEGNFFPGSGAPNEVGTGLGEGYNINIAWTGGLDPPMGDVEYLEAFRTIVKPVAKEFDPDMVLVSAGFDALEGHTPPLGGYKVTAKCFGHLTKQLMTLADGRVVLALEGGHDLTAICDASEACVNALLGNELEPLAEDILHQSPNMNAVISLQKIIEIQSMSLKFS", "experiment": "Inhibition of human HDAC9 using Boc-Lys(trifluoroacetyl)-AMC as flurogenic substrate"}, "Homo sapiens [2]": {"species": "Homo sapiens", "experiment": "Selectivity ratio of IC50 for human HDAC1 to IC50 for human HDAC6"}, "Homo sapiens [3]": {"species": "Homo sapiens", "experiment": "Selectivity ratio of IC50 for human HDAC2 to IC50 for human HDAC6"}, "Homo sapiens [4]": {"species": "Homo sapiens", "experiment": "Selectivity ratio of IC50 for human HDAC3 to IC50 for human HDAC6"}, "Homo sapiens [5]": {"species": "Homo sapiens", "experiment": "Selectivity ratio of IC50 for human HDAC4 to IC50 for human HDAC6"}, "Homo sapiens [6]": {"species": "Homo sapiens", "experiment": "Selectivity ratio of IC50 for human HDAC5 to IC50 for human HDAC6"}, "Homo sapiens [7]": {"species": "Homo sapiens", "experiment": "Selectivity ratio of IC50 for human HDAC10 to IC50 for human HDAC6"}, "[8]": {"target": "Lysine-specific histone demethylase 1A (Homo sapiens) (UniProt O60341)", "experiment": "Inhibition of LSD1 (unknown origin) using […] as substrate at 1 uM incubated for 48 hrs followed by substrate addition and measured after 2 hrs by microplate reader analysis", "details": "time 50.0 hrs"}, "DU-145 [9]": {"test_system": "DU-145", "experiment": "Upregulation of acetyl-tubulin in human DU-145 cells at 0.625 to 5 uM by Western blot analysis", "type": "functional, cell-based", "details": "dose 0.625-5 µM"}, "PC-3 [10]": {"test_system": "PC-3", "experiment": "Induction of H3K4ME2 accumulation in human PC-3 cells at 0.5 to 10 uM incubated for 48 hrs by Western blot analysis", "type": "functional, cell-based", "details": "dose 0.5-10 µM"}, "DU-145 [11]": {"test_system": "DU-145", "experiment": "Induction of H3K4ME2 accumulation in human DU-145 cells at 0.5 to 10 uM incubated for 48 hrs by Western blot analysis", "type": "functional, cell-based", "details": "dose 0.5-10 µM"}, "PC-3 [12]": {"test_system": "PC-3", "experiment": "Induction of apoptosis in human PC-3 cells at 1.25 to 10 uM incubated for 48 hrs by Western blot analysis", "type": "functional, cell-based", "details": "dose 1.25-10 µM"}, "[13]": {"experiment": "C0 in Sprague-Dawley rat at 2 mg/kg, iv administered as single dose through tail vein measured upto 24 hrs post dose by UPLC-MS/MS analysis", "type": "ADME, organism-based", "details": "in vivo"}, "[14]": {"experiment": "AUC (0 to infinity) in Sprague-Dawley rat at 2 mg/kg, iv administered as single dose through tail vein measured upto 24 hrs post dose by UPLC-MS/MS analysis", "type": "ADME, organism-based", "parameters": "dose 2 mg/kg, time < 24 hrs, route iv", "details": "in vivo"}, "[15]": {"experiment": "Tmax in Sprague-Dawley rat at 25 mg/kg, po administered once via gavage measured upto 24 hrs post dose by UPLC-MS/MS analysis", "type": "ADME, organism-based", "details": "in vivo"}, "[16]": {"experiment": "Half life in Sprague-Dawley rat at 25 mg/kg, po administered once via gavage measured upto 24 hrs post dose by UPLC-MS/MS analysis", "type": "ADME, organism-based", "details": "in vivo"}, "[17]": {"experiment": "Half life in Sprague-Dawley rat at 25 mg/kg, po formulated using SMEDDS administered once via gavage measured upto 24 hrs post dose by UPLC-MS/MS analysis", "type": "ADME, organism-based", "details": "in vivo"}, "[18]": {"experiment": "AUC (0 to 24 hrs) in Sprague-Dawley rat at 25 mg/kg, po formulated using SMEDDS administered once via gavage measured upto 24 hrs post dose by UPLC-MS/MS analysis", "type": "ADME, organism-based", "parameters": "dose 25 mg/kg, time < 24 hrs, route po", "details": "in vivo"}, "[19]": {"experiment": "Metabolic stability in Beagle dog hepatocyte assessed as parent compound remaining at 10 uM incubated for 30 mins by LC-MS/MS analysis", "type": "ADME, cell-based, Canis lupus familiaris", "details": "hepatocytes, read-out: Stability"}, "[20]": {"experiment": "Metabolic stability in Beagle dog hepatocyte assessed as parent compound remaining at 10 uM incubated for 60 mins by LC-MS/MS analysis", "type": "ADME, cell-based, Canis lupus familiaris", "details": "hepatocytes, read-out: Stability"}, "[21]": {"experiment": "Metabolic stability in Beagle dog hepatocyte assessed as parent compound remaining at 10 uM incubated for 120 mins by LC-MS/MS analysis", "type": "ADME, cell-based, Canis lupus familiaris", "details": "hepatocytes, read-out: Stability"}, "[22]": {"experiment": "Metabolic stability in human hepatocyte assessed as parent compound remaining at 10 uM incubated for 30 mins by LC-MS/MS analysis", "type": "ADME, cell-based", "details": "hepatocytes, read-out: Stability"}, "[23]": {"experiment": "Metabolic stability in Sprague-Dawley rat hepatocyte assessed as half life at 10 uM by LC-MS/MS analysis", "type": "ADME, cell-based", "details": "hepatocytes"}, "[24]": {"experiment": "Metabolic stability in Beagle dog hepatocyte assessed as half life at 10 uM by LC-MS/MS analysis", "type": "ADME, cell-based, Canis lupus familiaris", "details": "hepatocytes"}, "[25]": {"experiment": "Metabolic stability in Beagle dog hepatocyte assessed as intrinsic clearance at 10 uM by LC-MS/MS analysis", "type": "ADME, cell-based, Canis lupus familiaris", "details": "hepatocytes, read-out: CLH"}, "PC-3 [26]": {"test_system": "PC-3", "experiment": "Antitumor activity against human PC-3 cells xenografted in athymic nude mouse assessed as tumor growth inhibition at 50 mg/kg, po qd measured upto 25 days by caliper method relative to control", "type": "functional", "details": "PC-3, 600 h, time <= 25 day, read-out: TGI"}, "DU-145 [27]": {"test_system": "DU-145", "experiment": "Antitumor activity against human DU-145 cells xenografted in athymic nude mouse assessed as tumor growth inhibition at 100 mg/kg, po administered twice daily and measured upto 60 days by caliper method relative to control", "type": "functional", "details": "DU-145, 1440 h, time <= 60 day, read-out: TGI"}, "DU-145 [28]": {"test_system": "DU-145", "experiment": "Antitumor activity against human DU-145 cells xenografted in athymic nude mouse assessed as tumor growth inhibition at 200 mg/kg, po administered twice daily and measured upto 60 days by caliper method relative to control", "type": "functional", "details": "DU-145, 1440 h, time <= 60 day, read-out: TGI"}}, "note": "Active and inactive are the calls of the source. No cut-off for these calls is given here.", "data": [{"smiles": "C#CCN(C)Cc1cccc(NC(=O)CCCCCCC(=O)NO)c1", "values": [{"measurement": "GI50", "setting": "PC-3 [1]", "value": 330, "unit": "nM"}, {"measurement": "Activity", "setting": "HUVEC", "value": "Non-Toxic"}, {"measurement": "IC50", "setting": "Histone deacetylase 8", "value": 210, "unit": "nM"}, {"measurement": "IC50", "setting": "Histone deacetylase 9", "value": "> 10000", "unit": "nM"}, {"measurement": "Ratio IC50", "setting": "Homo sapiens [2]", "value": 33.6}, {"measurement": "Ratio IC50", "setting": "Homo sapiens [3]", "value": 77}, {"measurement": "Ratio IC50", "setting": "Homo sapiens [4]", "value": 5.8}, {"measurement": "Ratio IC50", "setting": "Homo sapiens [5]", "value": "> 500"}, {"measurement": "Ratio IC50", "setting": "Homo sapiens [6]", "value": 670}, {"measurement": "Ratio IC50", "setting": "Homo sapiens [7]", "value": 18.7}, {"measurement": "inhibition", "setting": "[8]", "value": "Active"}, {"measurement": "Activity", "setting": "DU-145 [9]", "value": "Active"}, {"measurement": "Activity", "setting": "PC-3 [10]", "value": "Active"}, {"measurement": "Activity", "setting": "DU-145 [11]", "value": "Active"}, {"measurement": "Activity", "setting": "PC-3 [12]", "value": "Active"}, {"measurement": "C0 at 24 h", "setting": "[13]", "value": 38.1, "unit": "ng/mL"}, {"measurement": "AUC(0-inf)", "setting": "[14]", "value": 76.8, "unit": "ng·h/mL"}, {"measurement": "Tmax", "setting": "[15]", "value": 0.5, "unit": "h"}, {"measurement": "half-life", "setting": "[16]", "value": 3.4, "unit": "h"}, {"measurement": "half-life", "setting": "[17]", "value": 4.3, "unit": "h"}, {"measurement": "AUC(0-t) at 24 h", "setting": "[18]", "value": 587, "unit": "ng·h/mL"}, {"measurement": "remaining at 0.5 h, 10 µM", "setting": "[19]", "value": 91.6, "unit": "%"}, {"measurement": "remaining at 1 h, 10 µM", "setting": "[20]", "value": 81.2, "unit": "%"}, {"measurement": "remaining at 2 h, 10 µM", "setting": "[21]", "value": 66.7, "unit": "%"}, {"measurement": "remaining at 0.5 h, 10 µM", "setting": "[22]", "value": 103, "unit": "%"}, {"measurement": "half-life at 10 µM", "setting": "[23]", "value": 1.56, "unit": "h"}, {"measurement": "half-life at 10 µM", "setting": "[24]", "value": 3.61, "unit": "h"}, {"measurement": "CLint scaled at 10 µM", "setting": "[25]", "value": 21.6, "unit": "mL/min/kg"}, {"measurement": "inhibition in vivo at 50 mg/kg", "setting": "PC-3 [26]", "value": 36.9, "unit": "%"}, {"measurement": "inhibition in vivo at 100 mg/kg", "setting": "DU-145 [27]", "value": 73.6, "unit": "%"}, {"measurement": "inhibition in vivo at 200 mg/kg", "setting": "DU-145 [28]", "value": 80.8, "unit": "%"}]}]}
